This is an account of results in ChEMBL document CHEMBL5331054, “Antibacterial quaternary ammonium agents: Chemical diversity and biological mechanism” (Eur J Med Chem, 2022).

Experiment [1] relates to Staphylococcus aureus. Briefly: Antibacterial activity against Staphylococcus aureus NBRC 12732 assessed as reduction in bacterial growth by CLSI based broth microdilution method. In kind it is functional. A general note: In broth dilution the organism is exposed to a series of concentrations in liquid medium.
The test system of experiment [2] is Enterococcus faecalis. Description: Antibacterial activity against Enterococcus faecalis assessed as reduction in bacterial cell growth. In kind it is functional.
Experiment [3] concerns Stenotrophomonas maltophilia. Briefly: Antibacterial activity against Stenotrophomonas maltophilia assessed as inhibition of bacterial growth. The format is functional.
Experiment [4] concerns Staphylococcus aureus. Description: Antimicrobial activity against Staphylococcus aureus assessed as reduction in bacterial growth. In kind it is functional.
In experiment [5] the test system is Staphylococcus aureus. Description: Antibacterial activity against methicillin-resistant Staphylococcus aureus assessed as bacterial growth inhibition. In kind it is functional.
The subject of experiment [6] is Pseudomonas aeruginosa. Briefly: Antibacterial activity against Pseudomonas aeruginosa assessed as inhibition of bacterial cell growth. In kind it is functional.
For experiment [7], the system named is Escherichia coli. Briefly: Antibacterial activity against Escherichia coli assessed as reduction bacterial cell growth. In kind it is functional.
For experiment [8], the system named is Staphylococcus aureus. Description: Antibacterial activity against methicillin-sensitive Staphylococcus aureus assessed as reduction microbial growth. The format is functional.
Experiment [9] concerns Pseudomonas aeruginosa. Briefly: Antibacterial activity against Pseudomonas aeruginosa assessed as bacterial growth inhibition incubated for 72 hrs by microdilution method. The format is functional. The settings on record: Pseudomonas aeruginosa, 72 h, read-out: MIC.
The subject of experiment [10] is Staphylococcus aureus. Briefly: Antibacterial activity against Staphylococcus aureus assessed as bacterial growth inhibition incubated for 72 hrs by microdilution assay. Particulars: Staphylococcus aureus; time 72 hrs. The format is functional, organism-based.
Experiment [11] concerns Enterococcus faecalis. Briefly: Antibacterial activity against Enterococcus faecalis assessed as bacterial growth inhibition incubated for 72 hrs by microdilution method. The format is functional.
The subject of experiment [12] is Escherichia coli. Briefly: Antibacterial activity against Escherichia coli assessed as bacterial growth inhibition incubated for 72 hrs by microdilution method. The settings on record: Escherichia coli, 72 h, read-out: MIC. In kind it is functional.
Experiment [13] has as its system Staphylococcus aureus. Description: Antibacterial activity against Staphylococcus aureus assessed as bacterial growth inhibition measured after 24 hrs by micro-broth dilution method. The format is functional.
The next experiment concerns Bacillus cereus. Briefly: Antibacterial activity against Bacillus cereus assessed as reduction in microbial growth after 18 hrs by MTT based broth dilution method. In kind it is functional.
Experiment [14] relates to Staphylococcus aureus. Briefly: Antibacterial activity against Staphylococcus aureus ATCC 25923 assessed as bacterial growth inhibition incubated for 24 hrs by microdilution method. In kind it is functional.
Experiment [15] deals with Staphylococcus epidermidis. Briefly: Antibacterial activity against Staphylococcus epidermidis ATCC 12228 assessed as bacterial growth inhibition incubated for 24 hrs by microdilution method. The format is functional.
For experiment [16], the system named is Staphylococcus aureus. Briefly: Antibacterial activity against Staphylococcus aureus ATCC 700699 assessed as reduction in bacterial growth inhibition incubated for 24 hrs by microbroth-dilution method. In kind it is functional.
The test system of experiment [17] is Staphylococcus aureus. Briefly: Antibacterial activity against methicillin-resistant Staphylococcus aureus assessed as log reduction in bacterial load measured after 60 mins. In kind it is functional. The settings on record: 1 h.
The subject of experiment [18] is Staphylococcus aureus. Description: Antibiofilm activity against methicillin-resistant Staphylococcus aureus assessed as inhibition of biofilm formation. The format is functional.
Experiment [19] deals with Staphylococcus aureus. Briefly: Antimicrobial activity against community acquired methicillin-resistant Staphylococcus aureus SH1000. In kind it is functional.
In experiment [20] the test system is Staphylococcus aureus. Description: Antibiofilm activity against methicillin-resistant Staphylococcus aureus SH1000 assessed as reduction in bacterial growth. The format is functional.
Experiment [21] deals with Staphylococcus aureus. Description: Antibacterial activity against methicillin- resistant Staphylococcus aureus assessed as bacterial growth inhibition incubated for 24 hrs. In kind it is functional.
The test system of experiment [22] is Staphylococcus aureus. Description: Antibacterial activity against Staphylococcus aureus CCM 451608 assessed as reduction in bacterial growth inhibition incubated for 48 hrs by microbroth dilution method. In kind it is functional.
For experiment [23], the system named is Staphylococcus aureus. Briefly: Antibacterial activity against Staphylococcus aureus CCM 451608 assessed as reduction in bacterial growth inhibition incubated for 24 hrs by microbroth dilution method. In kind it is functional.

Take `C[N+](CCO)(CCO)CCCCCCCCCCCCSc1nnc(-c2ccccc2)o1.[Br-]`: the MIC in the experiment with Staphylococcus aureus [1] was found to be 6.25 µg/mL.
`CCCCCCCCCCCC[N+](C)(C)CCOc1ccc(OCC[N+](C)(C)CCCCCCCCCCCC)cc1.[Br-].[Br-]`: the values for the MIC (in the experiment with Enterococcus faecalis [2]; in experiment [3]; in the experiment with Staphylococcus aureus [4]) were 1 µg/mL, 2 µg/mL and 1 µg/mL, respectively.
As for `CCCCCCCCCCCCCCCCCC[N+](CC)(CC)c1ccc(C(c2ccc([N+](C)(CC)CC)cc2)c2ccc([N+](C)(CC)CC)cc2)cc1`, the MIC turned out to be 0.5 µM in the experiment on Staphylococcus aureus [5]; 8 µM in the experiment on Pseudomonas aeruginosa [6]; 1 µM with Enterococcus faecalis [2]; 1 µM in the experiment on Escherichia coli [7]; 1 µM with Staphylococcus aureus [4].
Consider `CCCCCCCCCCCC[N+](C)(C)CCC[N+](C)(C)CCC[N+](C)(C)CCCCCCCCCCCC`, for which, in the experiment with Staphylococcus aureus [8], the MIC was 0.5 µM.
For the molecule `C[N+](C)(C)CC[N+](C)(C)C`, the MIC in the experiment on Pseudomonas aeruginosa [9], with Staphylococcus aureus [10], with Enterococcus faecalis [11] and in the experiment on Escherichia coli [12] was > 500 µM in each case.
As for `O=C(C[n+]1cc(-c2ccc(Cl)c(Cl)c2)n2c1CCC2)Nc1ccc(Oc2ccccc2)cc1`, the MIC in the experiment on Staphylococcus aureus [13] is 4 µM.
In the case of `CCCCCCCCCCCCCCCC[N+](C)(C)c1ccc(C(c2ccccc2)c2ccc([N+](C)(C)C)cc2)cc1.[I-].[I-]` (centres undefined), the MIC with Staphylococcus aureus [5] was < 0.25 µg/mL.
On to `CCCCCCCCCCCCCCOC(=O)[C@H](Cc1ccccc1)[N+](C)(CC)CC`, for which the MIC in the experiment on Bacillus cereus stood at 5.4 µM; with Staphylococcus aureus [14], 3.6 µM; in [15] it was 4.5 µM.
`CCCCCCCCCCCCCCCCCC[N+](C)(C)Cc1cnc(C)c(OC(C)=O)c1C.[Cl-]`: the MIC in the experiment with Staphylococcus aureus [16] came to 1 µg/mL.
On to `CC1(C)C(=O)N(CCC[N+](C)(C)CC[N+](C)(C)C)C(=O)N1Cl.[Cl-].[Cl-]`, for which, in the experiment with Staphylococcus aureus [17], the “log(activity)” value came out at 2.36.
For `CCCCCCCCCCCC[N+](C)(C)CCCCC[N+](C)(C)CCCCCCCCCCCC`, the MIC with Pseudomonas aeruginosa [9] is 4 µM; in the experiment with Staphylococcus aureus [10], 1 µM; with Enterococcus faecalis [11], 1 µM; with Escherichia coli [12] it was 1 µM.
Regarding `CCCCCCCCCCCC[N+](C)(C)CC[N+](C)(C)CCCCCCCCCCCC`, the MIC stood at 4 µM in the experiment with Pseudomonas aeruginosa [9], 1 µM in the experiment with Staphylococcus aureus [10], 1 µM with Enterococcus faecalis [11] and 2 µM in the experiment on Escherichia coli [12].
`CCCCCCCCCCCC[N+](C)(C)CCN(C)CC[N+](C)(C)CCCCCCCCCCCC`: the MIC with Pseudomonas aeruginosa [9] amounted to 4 µM; in the experiment with Staphylococcus aureus [10], 1 µM; in the experiment on Enterococcus faecalis [11] it was 2 µM; in the experiment with Escherichia coli [12], 1 µM; with Staphylococcus aureus [18], 1 µM.
Turning to `C=CC[N+](CCC[N+](C)(C)CCCCCCCCCC)(CCC[N+](C)(C)CCCCCCCCCC)CCC[N+](C)(C)CCCCCCCCCC.[Br-].[Br-].[Br-].[Br-]`, the MIC against Staphylococcus aureus [19] stood at 0.25 µM. In addition, the MBEC in the experiment on Staphylococcus aureus [20] came out at 25 µM.
In the case of `CCCCCCCCCC[N+](C)(C)CCCCCCCCCC` [DIDECYLDIMETHYLAMMONIUM CHLORIDE], the MIC in the experiment on Staphylococcus aureus [5] came to 4 µM; with Staphylococcus aureus [21], 1 µM.
For `CCCCCCCCCC[N+](C)(C)Cc1ccc(C[N+](C)(C)CCCCCCCCCC)cc1`, the MIC in the experiment on Staphylococcus aureus [13] was 6.1 µM.
As for `CCCCCCCCCCCCCCCC[n+]1ccc(C=NO)cc1`, the MIC in the experiment with Staphylococcus aureus [22] and in the experiment on Staphylococcus aureus [23] was 0.98 µM each time.
As to `CCCCCCCCCCCC[N+](C)(C)CCC[N+](C)(C)CCCCCCCCCCCC`, the MIC in the experiment on Pseudomonas aeruginosa [9] amounted to 4 µM; in the experiment on Staphylococcus aureus [10], 2 µM; with Enterococcus faecalis [11], 1 µM; in the experiment with Escherichia coli [12], 1 µM.
In the case of `C[N+](C)(C)CCCCC[N+](C)(C)C` [PENTAMETHONIUM BROMIDE], the MIC with Pseudomonas aeruginosa [9], in the experiment on Staphylococcus aureus [10], with Enterococcus faecalis [11] and in the experiment with Escherichia coli [12] was > 500 µM each time.
